# Experimental data reported in patent US20150011751A1, “NOVEL TRIAZINE DERIVATIVE” (CARNA BIOSCIENCES, INC., priority 2012, published 2015).
# Biological target: Dephosphorylated BTK (Homo sapiens, UniProt Q06187)
# Experiment: Test of activity inhibition against dephosphorylated BTK (mobility shift assay)
# Method: Kinase activity was measured by a mobility shift assay (MSA) method using QuickScout Screening Assist (trademark) MSA (commercially available kit, manufactured by Carna Biosciences, Inc.). FITC-labeled SRCtide peptide supplied with the kit was used as a substrate of a kinase reaction.
# IC50 value was calculated by regression analysis of the inhibition ratio and the test compound concentration (logarithm).
# Dephosphorylated BTK was obtained by adding a A protein phosphatase (Code No. P0753S, manufactured by New England BioLabs Inc.) and MnCl2 to a biotinylated BTK protein BTN-BTK (manufactured by Carna Biosciences, Inc.) enzyme solution so as to adjust the concentrations to 10 U/μg and 2 mM, respectively, reacting the mixture at 4° C. overnight, removing the A protein phosphatase through anti-[sequence]-tag antibody agarose gel chromatography, and performing buffer exchange using 10DG Desalting Column.
# Chain of Dephosphorylated BTK (Q06187 whole entry): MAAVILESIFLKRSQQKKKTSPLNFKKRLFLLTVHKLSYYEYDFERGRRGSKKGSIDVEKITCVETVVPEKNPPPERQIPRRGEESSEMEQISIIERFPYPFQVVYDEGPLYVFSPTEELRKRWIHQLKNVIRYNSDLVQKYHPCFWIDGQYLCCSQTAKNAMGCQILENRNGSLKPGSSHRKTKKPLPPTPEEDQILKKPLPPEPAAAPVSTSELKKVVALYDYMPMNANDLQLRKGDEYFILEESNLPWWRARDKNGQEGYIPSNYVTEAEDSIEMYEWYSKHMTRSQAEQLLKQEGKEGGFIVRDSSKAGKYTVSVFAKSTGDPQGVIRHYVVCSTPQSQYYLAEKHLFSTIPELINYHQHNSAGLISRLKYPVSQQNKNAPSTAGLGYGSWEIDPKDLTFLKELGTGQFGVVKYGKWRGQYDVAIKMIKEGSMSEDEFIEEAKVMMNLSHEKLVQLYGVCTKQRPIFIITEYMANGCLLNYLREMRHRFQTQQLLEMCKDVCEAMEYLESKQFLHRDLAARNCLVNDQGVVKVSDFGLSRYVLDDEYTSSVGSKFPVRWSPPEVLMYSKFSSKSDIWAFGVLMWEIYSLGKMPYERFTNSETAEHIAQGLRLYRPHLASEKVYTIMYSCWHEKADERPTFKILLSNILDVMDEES
row,SMILES,IC50 [nM]
1,"COc1cc(Nc2nc(N)nc(-c3cccc(NC(=O)c4ccc(C(C)(C)C)cc4)c3CO)n2)cc(OC)c1OCCCO [Example 188, N-[3-(4-Amino-6-{[4-(3-hyroxypropoxy)-3,5-dimethoxyphenyl]ami-no}-1,3,5-triazin-2-yl)-2-(hydroxymethyl)phe-nyl]-4-(tert-butyl) benzamide]",0.4
2,"Cc1c(NC(=O)c2ccc(C(C)(C)C)cc2)cccc1-c1ncnc(Nc2ccc(C(=O)NC(CO)CO)cc2)n1 [Example 19, 4-(tert-Butyl)-N-{3-[4-({4-[(1,3-dihydroxypropan-2-yl)carbamoyl]phenyl}amino)-1,3,5-triazin-2-yl]-2-methyl-phenyl}benzamide]",6.1
3,"Nc1nc(Nc2ccc(N3CCNCC3)cc2)nc(-c2cccc(NC(=O)c3cc4c(s3)CCCC4)c2CO)n1 [Example 147, N-[3-(4-Amino-6-{[4-(piperazin-1-yl)phenyl]amino}-1,3,5-triazin-2-yl)-2-(hydroxymeth-yl)phenyl]-4,5,6,7-tetra-hydrobenzo[b]thio-phene-2-carboxamide]",0.3
4,"COCCn1cc(Nc2nc(N)nc(-c3cccc(N4CCc5cc(C6CC6)cc(F)c5C4=O)c3CO)n2)cn1 [Example 212, 2-[3-(4-Amino-6-{[1-(2-methoxyethyl)-1H-py-razol-4-yl]amino}-1,3,5-triazin-2-yl)-2-(hy-droxymethyl)phenyl]-6-cyclopropyl-8-fluoro-3,4-dihydroisoquinolin-1(2H)-one]",0.9
5,"CC(C)(C)c1ccc(C(=O)Nc2cccc(-c3nc(N)nc(Nc4ccc(-n5ccnc5)cc4)n3)c2CO)cc1 [Example 185, N-[3-(4-{[4-(1H-Imida-zol-1-yl)phenyl]amino}-6-amino-1,3,5-triazin-2-yl)-2-(hydroxymeth-yl)phenyl]-4-(tert-butyl)benzamide]",1.2
6,"Cc1c(-c2nc(N)nc(Nc3ccc(C(=O)N4CCOCC4)cc3)n2)cccc1N1Cc2cc(C(C)(C)C)sc2C1=O [Example 42, 5-[3-(4-Amino-6-{[4-(morpholine-4-carbonyl)phenyl]amino}-1,3,5-triazin-2-yl)-2-methylphenyl]-2-(tert-butyl)-4H-thieno[2,3-c]pyrrol-6(5H)-one]",6.5
7,"CC(C)n1ccc(Nc2nc(N)nc(-c3cccc(N4CCc5cc(C6CC6)cc(F)c5C4=O)c3CO)n2)c1 [Example 229, 2-(3-{4-Amino-6-[(1-iso-propyl-1H-pyrrol-3-yl)amino]-1,3,5-triazin-2-yl}-2-(hydroxymeth-yl)phenyl)-6-cyclopro-pyl-8-fluoro-3,4-di-hydroisoquinolin-1(2H)-one]",2.5
8,"Nc1nc(Nc2cnn(C3CCCC3)c2)nc(-c2cccc(N3CCc4cc(C5CC5)cc(F)c4C3=O)c2CO)n1 [Example 239, 2-(3-{4-Amino-6-[(1-cyclo-pentyl-1H-pyrazol-4-yl)amino]-1,3,5-tri-azin-2-yl}-2-(hydroxy-methyl)phenyl)-6-cyclo-propyl-8-fluoro-3,4-dihydroisoquinolin-1 (2H)-one]",0.5
9,"Nc1nc(Nc2ccc(N3CCOCC3)cc2)nc(-c2cccc(N3CCc4c(sc5c4CCCC5)C3=O)c2CO)n1 [Example 227, 2-(3-{4-Amino-6-[(4-morpho-linophenyl)amino]-1,3,5-triazin-2-yl}-2-(hydroxymethyl)phe-nyl)-3,4,5,6,7,8-hexa-hydrobenzo[4,5]thieno [2,3-c]pyridin-1(2H)-one]",3.5
10,"CC(C)(CO)c1ccc(C(=O)Nc2cccc(-c3nc(N)nc(Nc4ccc(N5CCOCC5)cc4)n3)c2CO)cc1 [Example 201, N-(3-{4-Amino-6-[(4-mor-pholinophenyl)amino]-1,3,5-triazin-2-yl}-2-(hydroxymethyl)phe-nyl)-4-(1-hydroxy-2-meth-ylpropan-2-yl)benz-amide]",3.4
11,"CC(C)(C)c1ccc(C(=O)Nc2cccc(-c3nc(N)nc(Nc4ccc(Cn5cncn5)cc4)n3)c2CO)cc1 [Example 164, N-{3-[4-({4-[(1H-1,2,4-Triazol-1-yl)methyl]phenyl}amino)-6-amino-1,3,5-triazin-2-yl]-2-(hydroxymethyl)phe-nyl}-4-(tert-butyl) benzamide]",0.5
12,"Nc1nc(Nc2ccc(Cn3cncn3)cc2)nc(-c2cccc(N3CCc4cc(C5CC5)cc(F)c4C3=O)c2CO)n1 [Example 49, 2-{3-[4-({4-[(1H-1,2,4-Triazol-1-yl)methyl]phenyl}amino)-6-amino-1,3,5-triazin-2-yl]-2-(hydroxymethyl)phe-nyl}-6-cyclopropyl-8-fluoro-3,4-dihydroiso-quinolin-1(2H)-one]",1.1
13,"CC(C)(C)c1ccc(C(=O)Nc2cccc(-c3nc(N)nc(Nc4ccc(NS(C)(=O)=O)cc4)n3)c2CO)cc1 [Example 112, N-[3-(4-Amino-6-{[4-(meth-ylsulfonamido)phe-nyl]amino}-1,3,5-tria-zin-2-yl)-2-(hydroxymeth-yl)phenyl]-4-(tert-butyl)benzamide]",1.1
14,"CC(C)(C)c1ccc(C(=O)Nc2cccc(-c3nc(N)nc(Nc4cccc(C(=O)O)c4)n3)c2CO)cc1 [Example 153, 3-[(4-Amino-6-{3-[4-(tert-butyl)benzamido]-2-(hydroxymethyl)phe-nyl}-1,3,5-triazin-2-yl)amino]benzoic acid]",4.9
15,"CN(C)CCCOc1ccc(Nc2nc(N)nc(-c3cccc(N4CCc5cc(C6CC6)cc(F)c5C4=O)c3CO)n2)cc1 [Example 183, 2-{3-[4-Amino-6-({4-[3-(dimethylamino)pro-poxy]phenyl}amino)-1,3,5-triazin-2-yl]-2-(hydroxymethyl)phenyl}-6-cyclopropyl-8-fluoro-3,4-dihydro-isoquinolin-1(2H)-one]",2.3
16,"Nc1nc(Nc2cnn(CCCO)c2)nc(-c2cccc(N3CCc4cc(C5CC5)cc(F)c4C3=O)c2CO)n1 [Example 225, 2-[3-(4-Amino-6-{[1-(3-hydroxypropyl)-1H-py-razol-4-yl]amino}-1,3,5-triazin-2-yl)-2-(hy-droxymethyl)phenyl]-6-cyclopropyl-8-fluoro-3,4-dihydro-isoquinolin-1(2H)-one]",1.2
17,"CC(C)(C)c1ccc(C(=O)Nc2cccc(-c3nc(N)nc(Nc4cccc(CN5CCOCC5)c4)n3)c2CO)cc1 [Example 163, N-[3-(4-Amino-6-{[3-(morpholinomethyl)phe-nyl]amino}-1,3,5-triazin-2-yl)-2-(hydroxymeth-yl)phenyl]-4-(tert-butyl)benzamide]",1
18,"CC(C)(C)c1ccc(C(=O)Nc2cccc(-c3nc(N)nc(Nc4ccc(OCCO)cc4)n3)c2CO)cc1 [Example 184, N-[3-(4-Amino-6-{[4-(2-hydroxyethoxy)phenyl]amino}-1,3,5-triazin-2-yl)-2-(hydroxymeth-yl)phenyl]-4-(tert-butyl)benzamide]",0.8
19,"CC(C)(C)c1ccc(C(=O)Nc2cccc(-c3nc(N)nc(Nc4ccc(N5CCOC5=O)cc4)n3)c2CO)cc1 [Example 156, N-[3-(4-Amino-6-{[4-(2-oxooxazolidin-3-yl)phenyl]amino}-1,3,5-tri-azin-2-yl)-2-(hydroxy-methyl)phenyl]-4-(tert-butyl)benzamide]",0.5
20,"Nc1nc(Nc2ccc(N3CCOCC3)c(F)c2)nc(-c2cccc(N3CCc4cc(C5CC5)cc(F)c4C3=O)c2CO)n1 [Example 242, 2-(3-{4-Amino-6-[(3-fluoro-4-morpholinophe-nyl)amino]-1,3,5-tri-azin-2-yl}-2-(hydroxymeth-yl)phenyl)-6-cyclo-propyl-8-fluoro-3,4-di-hydroisoquinolin-1(2H)-one]",1.5
21,"Nc1nc(Nc2ccn([C@@H]3CCOC3)c2)nc(-c2cccc(N3CCc4cc(C5CC5)cc(F)c4C3=O)c2CO)n1 [Example 250, (R)-2-[3-(4-Amino-6-{[1-(tetrahydrofuran-3-yl)-1H-pyrrol-3-yl]ami-no}-1,3,5-triazin-2-yl)-2-(hydroyxmethyl)phenyl]-6-cyclopropyl-8-fluoro-3,4-dihydro-isoquinolin-1(2H)-one]",1.5
22,"CN1CCN(C)C(c2ccc(Nc3nc(N)nc(-c4cccc(N5Cc6cc(C(C)(C)C)sc6C5=O)c4CO)n3)cc2)C1=O (stereo not shown) [Example 83, 5-[3-(4-Amino-6-{[4-(1,4-dimethyl-3-oxo-piperazin-2-yl)phenyl]ami-no}-1,3,5-triazin-2-yl)-2-(hydroxymethyl)phenyl]-2-(tert-butyl)-4H-thieno[2,3-c]pyr-rol-6(5H)-one]",1.8
23,"CC(C)(C)c1ccc(C(=O)Nc2cccc(-c3nc(N)nc(Nc4ccc(N5CCC(O)CC5)cc4)n3)c2CO)cc1 [Example 107, N-[3-(4-Amino-6-{[4-(4-hydroxypiperidin-1-yl)phenyl]amino}-1,3,5-triazin-2-yl)-2-(hy-droxymethyl)phenyl]-4-(tert-butyl)benzamide]",0.8
24,"C=CCn1cc(Nc2nc(N)nc(-c3cccc(N4CCc5cc(C6CC6)cc(F)c5C4=O)c3CO)n2)cn1 [Example 274, 2-(3-{4-[(1-Allyl-1H-pyrazol-4-yl)amino]-6-amino-1,3,5-triazin-2-yl}-2-(hydroxymethyl)phenyl)-6-cyclopropyl-8-fluoro-3,4-dihydro-isoquinolin-1(2H)-one]",1
25,"Nc1nc(Nc2cnn(CCO)c2)nc(-c2cccc(N3CCc4cc(C5CC5)cc(F)c4C3=O)c2CO)n1 [Example 179, 2-[3-(4-Amino-6-{[1-(2-hydroxyethyl)-1H-py-razol-4-yl]amino}-1,3,5-triazin-2-yl)-2-(hy-droxymethyl)phenyl]-6-cyclopropyl-8-fluoro-3,4-dihydroisoquino-lin-1(1H)-one]",0.9
26,"CC(C)(C)c1ccc(C(=O)Nc2cccc(-c3nc(N)nc(Nc4ccc(N5CCOCC5)nc4)n3)c2CO)cc1 [Example 174, N-(3-{4-Amino-6-[(6-morpholinopyridin-3-yl)amino]-1,3,5-triazin-2-yl}-2-(hydroxymeth-yl)phenyl)-4-(tert-butyl)benzamide]",1.5
27,"COc1cc(Nc2nc(N)nc(-c3cccc(NC(=O)c4ccc(C(C)(C)C)cc4)c3CO)n2)cc(OC)c1OC [Example 91, N-(3-{4-Amino-6-[(3,4,5-trimethoxyphenyl)ami-no]-1,3,5-triazin-2-yl}-2-(hydroxymethyl)phenyl)-4-(tert-butyl) benzamide]",1.1
28,"Cc1cc(Nc2nc(N)nc(-c3cccc(NC(=O)c4ccc(C(C)(C)C)cc4)c3CO)n2)ccc1O [Example 117, N-(3-{4-Amino-6-[(4-hy-droxy-3-methylphenyl)amino]-1,3,5-triazin-2-yl)-2-(hydroxymeth-yl)phenyl)-4-(tert-butyl)benzamide]",0.9
